Measurements published in patent US20130011855A1, “Methods for Determining Aged Based Accumulation of Senescent Cells Using Senescense Specific DNA Damage Markers” (priority 2008, published 2013).

Tests used:
ATM p (S1987) = test: Relative immunofluorescent intensity of phospho ATM foci in frozen liver sections; format: in vivo, mice; settings: for signal strength of phospho ATM in 53BP1/phospho ATM foci: by 7 weeks after exposure; for Relative immunofluorescent intensity of foci for ATM p (S1987): single i.p. injection to juvenile mice, liver hepatocytes
Description: (§1) Eight to eleven-day-old F1 mice from C57BL/6, obtained from the National Institute of Aging, Aged Rodent Colonies (Bethesda, Md.), were injected intraperitoneally with AAT (Sigma-Aldrich; St. Louis, Mo.) at 2 mg/kg body weight in corn oil. […] Control gender-matched litter mates were injected with corn oil or PBS. […] Female C57BL/6 mice (4- and 22-month-old) were allowed to acclimate at least 1 week prior to usage. All procedures were done within the guidelines of the Animal Research Committee at the University of Illinois at Chicago and the “Principles of laboratory animal care” (NIH publication No. 86-23, revised 1985).
To detect DNA damage foci, frozen 5-micron liver sections were rapidly transferred to slides after sectioning, then immediately fixed in 2% paraformaldehyde PBS for 20 min, and then prepared following standard protocols. […] The specificity was verified by blockage with oligopeptides bearing the antigenic sequences. Antiphospho ATM (S1981) (Rockland Immunochemicals, Gilbertsville, Pa.; 1:800) was a mouse antibody. Anti-rabbit and anti-mouse secondary antibodies conjugated to Cy-3 were obtained from Jackson Immunoresearch (West Grove, Pa.). Prior to mouse primary antibody application, tissues were first blocked with 1% goat anti-mouse FAB (Jackson Immunoresearch) followed by incubation with 4% BSA. Slides were counterstained with 0.2 ug/ml 4′,6-diamidino-2-phenylindole (DAPI) for 2 min prior to mounting in mowiol (Calbiochem; San Diego, Calif.) with 2% 1,4-diazobicyclo[2,2,2]octane (Sigma-Aldrich). Fluorescent 400× images were typically collected immediately after the assay. Foci-associated nuclei and total nuclei were counted using Image Pro Plus software (MediaCybernetics, Bethesda, Md.). Three to four mice were used for each time point and 300-500 nuclei were counted for each subject. Relative fluorescence intensity of foci in images was quantitated using the density measurement of the Image Pro Plus software with subtraction of local background levels. Four to seven mice were studied per time point with 8 to 18 53BP1/phospho ATM foci scored per mouse. Minimally exposed images were used. The student's t-test was used for statistical comparisons for these and other experiments. For double labeling with anti-phospho ATM (S1981) and anti-53BP1 antibodies, sections were prepared as described above, first labeling with the anti-phospho-ATM (S1981) and Cy-3 secondary antibody as above, then incubated with 4% BSA, followed by anti-53BP1 and then by Alexa 488 conjugated goat anti-rabbit antibody (Invitrogen; Carlsbad, Calif.; 1:200). All secondary antibodies were pre-adsorbed to reduce cross-reactivity as verified by negative control experiments.

primary hepatocytes [1] = test: SA β Gal assay on hepatocytes isolated from exposed mice; format: cell-based; settings: hepatocytes from exposed mice in primary culture
Description: (§2) FIG. 5A Collagenase perfusion was used to isolate hepatocytes from juvenile mice exposed 3 weeks previously to AAT. Twenty-four hours prior to fixation, cells were incubated with [3H]thymidine to allow the quantitation of the S phase index after processing for autoradiography. Shown are the means plus the (standard deviations) S.D. *P<0.002 versus the controls. FIG. 5B Cells isolated as described above from mice exposed, or not exposed, to AAT were subjected to the SA-β-Gal assay after fixation. At least 100 cells were counted on each plate from 3 to 5 control mice and 5 to 6 AAT exposed mice depending on the time point. Shown are the means plus S.D. *P<0.05 versus the controls. FIG. 5C Shown is a representative bright field image of primary hepatocytes 3 days after culture. Arrows indicate the blue, peri-nuclear stained, SA β Gal-positive cells. To reduce background [3H]thymidine detection was not done in this experiment. The phase contrast image below allows better visualization of the cells, original magnification 100×. […]
DNA damage repair proteins such as Chk2 that are active in DDR are not active during senesce. […] There was no enrichment of activated phospho p53 (S15) or Chk2 (T68), while phospho ATM (S1981) positive cells were detected but the foci were of low intensity (FIG. 3, Table 1, data not shown). […]

primary hepatocytes [2] = test: S phase index by [3H]thymidine labeling of hepatocytes isolated from exposed mice; format: cell-based; settings: hepatocytes from juvenile mice exposed 3 weeks previously
Description: as §2, with “100×. FIG. 5D Hepatocytes isolated from adult 4-month-old and 22-month-old were cultured and assayed for S phase index as described. Shown are means plus S.D. There is a lag in S phase entry in cells from these adult mice. *P<0.02 and **P<0.004. FIG. 5E Hepatocytes from young adult and aged adult mice were cultured as described and then subjected to the SA β Gal assay.” for “100×.”

[3] = test system: 53BP1 foci in hepatocytes; test: 53BP1 foci immunolocalization in hepatocytes of frozen liver sections; format: in vivo, mice; settings: by 2.5 days after exposure
Description: Eight to eleven-day-old F1 mice from C57BL/6, obtained from the National Institute of Aging, Aged Rodent Colonies (Bethesda, Md.), were injected intraperitoneally with AAT (Sigma-Aldrich; St. Louis, Mo.) at 2 mg/kg body weight in corn oil. […] Control gender-matched litter mates were injected with corn oil or PBS. […] All procedures were done within the guidelines of the Animal Research Committee at the University of Illinois at Chicago and the “Principles of laboratory animal care” (NIH publication No. 86-23, revised 1985).
To detect DNA damage foci, frozen 5-micron liver sections were rapidly transferred to slides after sectioning, then immediately fixed in 2% paraformaldehyde PBS for 20 min, and then prepared following standard protocols. […] The specificity was verified by blockage with oligopeptides bearing the antigenic sequences. […] Foci-associated nuclei and total nuclei were counted using Image Pro Plus software (MediaCybernetics, Bethesda, Md.). Three to four mice were used for each time point and 300-500 nuclei were counted for each subject. Relative fluorescence intensity of foci in images was quantitated using the density measurement of the Image Pro Plus software with subtraction of local background levels. Four to seven mice were studied per time point with 8 to 18 53BP1/phospho ATM foci scored per mouse. […]

phospho Chk2 (T68) = test: Phospho Chk2 (T68) nuclear immunostaining of liver sections; format: in vivo, mice
Description: as §1
(§3) To detect DNA damage foci, frozen 5-micron liver sections were rapidly transferred to slides after sectioning, then immediately fixed in 2% paraformaldehyde PBS for 20 min, and then prepared following standard protocols. […] Foci-associated nuclei and total nuclei were counted using Image Pro Plus software (MediaCybernetics, Bethesda, Md.). Three to four mice were used for each time point and 300-500 nuclei were counted for each subject. Relative fluorescence intensity of foci in images was quantitated using the density measurement of the Image Pro Plus software with subtraction of local background levels. Four to seven mice were studied per time point with 8 to 18 53BP1/phospho ATM foci scored per mouse. […]

p53 (S 15) = test: Phospho p53 (S15) immunostaining of liver sections; format: in vivo, mice; settings: baseline or near baseline levels by 3-7 weeks post exposure
Description: as §1, §3

ATM/ATR p (S/TQ) = test: Relative immunofluorescent intensity of ATM/ATR p (S/TQ) foci in frozen liver sections; format: in vivo; settings: single i.p. injection to juvenile mice, liver hepatocytes
Description: as §1, §3

[4] = test system: 53BP1/phospho ATM (S1981) foci in hepatocytes; test: Hepatocytes positive for 53BP1/phospho ATM co-localized foci in liver sections; format: in vivo, mice
Description: as §1, §3

CO[C@@]12[C@H](COC(N)=O)C3=C(C(=O)C(C)=C(N)C3=O)N1C[C@@H]1N[C@@H]12 [mitomycin C]
signal strength of phospho ATM in 53BP1/phospho ATM foci (ATM p (S1987)): significant decreases in the signal strength of phospho ATM

Cc1cc(N=Nc2ccccc2C)ccc1N [AAT, aminoazotoluene]
SA β Gal staining of isolated hepatocytes (primary hepatocytes [1]): positive for SA β Gal
S phase entry of isolated hepatocytes (primary hepatocytes [2]): defective for S phase entry
53BP1 foci in hepatocytes [3]: Appearance of 53BP1 foci
phospho Chk2 positive nuclei (phospho Chk2 (T68); 0.5 and 1 week after exposure): high levels of nuclear staining
activation of Chk2 (T68) over time (phospho Chk2 (T68); baseline or near baseline levels by 3-7 weeks post exposure): activated only transiently
activation of p53 (S 15) over time (p53 (S 15)): activated only transiently
Relative immunofluorescent intensity of foci for ATM/ATR p (S/TQ) (ATM/ATR p (S/TQ); 3 Wk post exposure): 100 ± 20.0
Relative immunofluorescent intensity of foci for ATM/ATR p (S/TQ) (ATM/ATR p (S/TQ); 7 Wk post exposure): 50 ± 17.5^A
nuclear foci containing both 53BP1 and phospho ATM ([4]; 1 and 3 weeks after genotoxin exposure): elevated levels of nuclear foci
cells with 53BP1/phospho ATM foci ([4]; 7 weeks after exposure, versus unexposed control mice): still present at higher levels than in the unexposed control mice
Relative immunofluorescent intensity of foci for ATM p (S1987) (ATM p (S1987); 3 Wk post exposure): 100 ± 4.50
Relative immunofluorescent intensity of foci for ATM p (S1987) (ATM p (S1987); 7 Wk post exposure): 50 ± 9.80^D
signal strength of phospho ATM in 53BP1/phospho ATM foci (ATM p (S1987)): significant decreases in the signal strength of phospho ATM
